Results: patent US20050232915A1, “Matrix metalloproteinase inhibitors in combination with hypothermia and/or radiotherapy for the treatment of cancer” (priority 2002, published 2005)

Legend:
Panc-1 cells [1] = test: Growth and viability of Panc-1 cells (cell proliferation assay); assay type: cell-based, human; conditions: concentrations up to 10 μM
Experimental: Cell proliferation is evaluated by measuring the fluorescence intensity of propidium iodide (PI) as described previously by Zhang et al. (Cancer Lett., 142: 129-137, 1999) with minor modifications. Briefly, cells are seeded in 24-well plates at a density of 3×10^4 cells per well. After overnight cultivation, cells are irradiated and cultured for 4 days. PI (30 μM) and digitonin ([…]) are added to each well to label all nuclei of the cells with PI. Fluorescence intensity corresponding to total cells in each well is measured by a multi-well plate-reader, CYTOFLUOR II (PerSeptive Biosystems Inc., Framingham, Mass., USA) with 530-nm excitation and 645-nm emission filters. The cell proliferation rate is calculated as the proportion of fluorescence intensity of each well at the time point indicated in the text to that at the day of irradiation.
(§1) Finally, we test whether a synthetic MMP inhibitor, N-hydroxy-2(R)-[[4 methoxyphenylsulfonyl](3-picolyl)amino]-3-methyl-butaneamide hydrochloride) monohydrate, could prevent the radiation-enhanced invasiveness. N-hydroxy-2(R)-[[4-methoxyphenylsulfonyl](3-picolyl)amino]-3-methyl-butaneamide hydrochloride) monohydrate is added to invasion chambers at final concentrations of 1, 5, and 10 μm just before irradiation.

MMP-2 [2] = target: T1, MMP-2 (Homo sapiens, UniProt P08253); test: Gelatin zymography of conditioned medium from Panc-1 cells; assay type: cell-based; conditions: 5 μM, Panc-1 conditioned medium
T1 construct: The conditioned medium either from non-irradiated or irradiated Panc-1 cells is concentrated to 10-fold; endogenous in cells; host or cells: Panc-1 cells (conditioned medium)
T1 sequence (P08253 110-660): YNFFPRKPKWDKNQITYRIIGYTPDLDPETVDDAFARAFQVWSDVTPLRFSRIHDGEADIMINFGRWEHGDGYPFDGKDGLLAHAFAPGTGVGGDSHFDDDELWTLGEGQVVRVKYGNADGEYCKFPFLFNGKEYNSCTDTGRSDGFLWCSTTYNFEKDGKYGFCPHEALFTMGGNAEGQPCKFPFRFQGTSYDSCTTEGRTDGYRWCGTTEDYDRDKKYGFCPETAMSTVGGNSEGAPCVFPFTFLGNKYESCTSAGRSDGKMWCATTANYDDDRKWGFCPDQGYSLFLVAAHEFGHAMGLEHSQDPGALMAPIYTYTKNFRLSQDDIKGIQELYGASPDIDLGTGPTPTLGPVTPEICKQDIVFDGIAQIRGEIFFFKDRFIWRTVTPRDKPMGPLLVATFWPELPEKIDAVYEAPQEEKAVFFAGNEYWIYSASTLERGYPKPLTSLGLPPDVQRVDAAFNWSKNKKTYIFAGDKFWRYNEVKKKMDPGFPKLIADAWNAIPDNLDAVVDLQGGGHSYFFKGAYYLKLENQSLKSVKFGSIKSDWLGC
Experimental: (§2) The conditioned medium either from non-irradiated or irradiated Panc-1 cells is concentrated to 10-fold with Centricon-10 (Amico, Beverly, Mass., USA). Samples are added to each lane and subjected to 10% SDS-polyacrylamide gel electrophoresis, using 10% polyacrylamide gel containing 1 mg/ml gelatin. After electrophoresis, the gel is washed in 2.5% Triton X-100, and incubated in 50 mM Tris-HCl buffer (pH8.0) containing 0.5 mM CaCl2 and 1 mM ZnCl2 for 20 hr at 37° C. The gel is stained with 1% Coomassie Brilliant Blue R-250 and destained with destaining buffer (5% acetic acid and 10% methanol).
(§3) To determine the role of gelatinases in the radiation-induced changes in invasive potential, we examine MMPs activity in Panc-1 cells before and after irradiation. Cells are incubated 24 h after irradiation and the conditioned medium is subjected to the gelatin zymography. Untreated Panc-1 cells secrete both latent and active forms of MMP-2 (72 kDa and 62 kDa gelatinases).
as §1

MMP-2 [3] = target: T2, MMP-2 (Homo sapiens, UniProt P08253); test: as above; assay type: cell-based; conditions: 5 μM, Panc-1 conditioned medium; remark: listed apart in the source
T2 construct: The conditioned medium either from non-irradiated or irradiated Panc-1 cells is concentrated to 10-fold; endogenous in cells; host or cells: Panc-1 cells (conditioned medium)
T2 sequence (P08253 30-660): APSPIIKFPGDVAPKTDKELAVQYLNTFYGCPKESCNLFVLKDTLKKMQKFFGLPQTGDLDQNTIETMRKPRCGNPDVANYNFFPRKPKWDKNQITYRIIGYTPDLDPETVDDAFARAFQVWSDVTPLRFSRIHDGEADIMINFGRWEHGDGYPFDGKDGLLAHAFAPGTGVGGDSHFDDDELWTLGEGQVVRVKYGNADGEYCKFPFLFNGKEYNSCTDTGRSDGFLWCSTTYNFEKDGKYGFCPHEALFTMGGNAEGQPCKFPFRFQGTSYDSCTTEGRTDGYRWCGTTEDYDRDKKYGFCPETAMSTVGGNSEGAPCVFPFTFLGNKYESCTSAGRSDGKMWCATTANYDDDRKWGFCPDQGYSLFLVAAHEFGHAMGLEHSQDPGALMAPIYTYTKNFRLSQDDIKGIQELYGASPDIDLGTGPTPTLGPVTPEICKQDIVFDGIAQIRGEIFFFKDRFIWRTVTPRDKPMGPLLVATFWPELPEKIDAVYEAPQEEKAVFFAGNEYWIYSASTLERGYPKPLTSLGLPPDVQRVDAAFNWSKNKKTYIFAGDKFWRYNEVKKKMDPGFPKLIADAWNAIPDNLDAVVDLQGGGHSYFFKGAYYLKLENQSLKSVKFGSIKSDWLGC
Experimental: as §2, §3, §1

Panc-1 cells [4] = test: Matrigel invasion assay after irradiation; assay type: cell-based, human; conditions: Panc-1, irradiation at 5 Gy, inhibitor at 5 and 10 μM added just before irradiation, 24 h
Experimental: The cells are irradiated with doses of 3, 5, or 10 Gy at room temperature using a ^137Cs source (Gamma Cell 40, Atomic Energy of Canada Ltd., Ontario, Canada) delivering 1.0 Gy/min.
Invasion of pancreatic cancer cells is measured by the invasion of cells through Matrigel-coated transwell inserts (Becton Dickinson, Franklin Lakes, N.J., USA) (Sato et al and Maehara et al ibid).
Briefly, transwell inserts with 8 μm pore are coated with Matrigel (40 μg/well, Becton Dickinson, Bedford, Mass., USA). Five hundred μl of cell suspension (1×10^5/ml) are added to the upper chambers. Same media of 750 μl are placed in the lower wells. Thereafter, the cells are irradiated and incubated for 24 h. Cells that have invaded to lower surface of the Matrigel-coated membrane are fixed with 70% ethanol, stained with H&E, and counted in five random fields under a light microscope.
as §1

active type MMP-2 (gelatin zymography) (MMP-2 [2]): markedly decreases
enzymatic activity of latent type MMP-2 (gelatin zymography) (MMP-2 [3]): without affecting
SMILES: COc1ccc(S(=O)(=O)N(Cc2cccnc2)[C@@H](C(=O)NO)C(C)C)cc1.Cl.O [N-hydroxy-2(R)-[[4-methoxyphenylsulfonyl](3-picolyl)amino]-3-methyl-butaneamide hydrochloride)monohydrate]
growth and viability of Panc-1 cells (Panc-1 cells [1]): does not affect the growth and viability
increase in invaded cells after irradiation (radiation-enhanced invasion) (Panc-1 cells [4]): significantly block the increase in invaded cells after irradiation
